Data: patent US20030187038A1, “Fibrinogen-lowering agents” (priority 2000, published 2003)

Test system: plasma fibrinogen
Assay: Fibrinogen-lowering effect in spontaneously hypercholesterolemia (SHC) rats
Assay type: in vivo, rat
Procedure: Candesartan cilexetil (TCV-116; 0.5% methylcellulose 100 cp suspension; 1 mg/kg (2 ml/kg)) were administered orally to 10-week-old SHC rats once a day for a 6-week period. 0.5% methylcellulose 100 cp suspensions were administered to the control group (vehicle-treated group) in a volume of 2 ml/kg. Fibrinogen concentrations in plasma were measured as follows. At the end of experiments, the blood was withdrawn from aorta abdominalis into 3.8% trisodium citrate solution (Citral, Yamanouchi Pharmaceutical Co.,Ltd., final concentration of 0.38%) and the plasma were prepared by centrifuging at 3000 rpm at room temperature for 20 minutes. The fibrinogen concentration was determined using fibrinogen test RD (Roche Diagnostics) and the clot timer (B-10, Sarstedt, Inc.) with reference to a standard rat fibrinogen (F-6755, Sigma).

CCOc1nc2cccc(C(=O)OC(C)OC(=O)OC3CCCCC3)c2n1Cc1ccc(-c2ccccc2-c2nnn[nH]2)cc1 (centres unmarked) [TCV-116, 1-(cyclohexyloxycarbonyloxy)ethyl 2-ethoxy-1-[[2′-(1H-tetrazol-5-yl)biphenyl-4-yl]methyl]-benzimidazole-7-carboxylate]
Fibrinogen level (SHC rat plasma, 1 mg/kg/day orally once a day for 6 weeks, Mean ± SE, n = 5, p < 0.01 vs vehicle): 354.0 ± 29.1 mg/dL
Effect on plasma fibrinogen level versus control group (SHC rat, 1 mg/kg, comparison with vehicle-treated group): decreased the plasma fibrinogen level of SHC rat significantly
